Assay results as given in patent US20100056560A1, “USE FOR TREATING OBESITY AND DIABETES” (priority 2006, published 2010).

System: adiponectin
Assay: Expression of adiponectin in 3T3-L1 adipocytes (Western blot)
Format: cell-based, Mouse
Conditions: 3T3-L1, 100 μM isoflavone, 1 mM L-carnitine, 1 mM L-arginine, 100 ppm caffeine, 24 hours
Description: Mouse undifferentiated 3T3-L1 adipocytes) (purchased from ATCC) were cultured in 10% calf serum-containing DMEM (Dulbecco's modified Eagle's medium, Gibco 1210-0038) in a 10% CO2 incubator to a confluency of 70% while replacing the medium with a fresh medium at 2-day intervals. For differentiation into adipocytes, the cells were cultured in a medium (containing 10% fetal bovine serum, 0.5 mM 3-isobutyl-1-methyxanthine (Sigma), 1 μM dexamethasone (Sigma) and 167 nM insulin (Novo-Nordisk)) for 48 hours, and then the medium was replaced with a DMEM medium (containing 10% fetal bovine serum and 167 nM insulin), in which the cells were further cultured for 48 hours. Finally, the cells were further cultured in a medium (containing only 10% fetal bovine serum) for 48 hours, thus obtaining differentiated adipocytes.
The adipocytes, differentiated in the step 1, were cultured in a medium, containing 51 fatty acid-free calf serum, for 16 hours. On the next day, the cultured cells were washed three times with PBS, and then treated with each of 100 μM isoflavone, 1 mM L-carnitine, 1 mM L-arginine, 100 ppm caffeine and a mixture of 100 μM isoflavone+1 mM L-carnitine+1 mM L-arginine+100 ppm caffeine. After 24 hours of cell incubation, a protein was isolated from each of the media and subjected to Western blot analysis in order to examine a change in the expression of adiponectin.

Cn1c(=O)c2c(ncn2C)n(C)c1=O [caffeine]
expression of adiponectin: decrease in the expression of adiponectin
